Key:
CYP2C8 = biological target: T1, CYP2C8 (Homo sapiens, UniProt P10632); assay: CYP2C8 inhibition in human liver microsomes (paclitaxel 6α-hydroxylation); type: in vitro ADME; conditions: 100 μM bergenin, pooled HLMs
T1 construct: from tissue; host or cells: pooled human liver microsomes
T1 sequence (P10632 1-490): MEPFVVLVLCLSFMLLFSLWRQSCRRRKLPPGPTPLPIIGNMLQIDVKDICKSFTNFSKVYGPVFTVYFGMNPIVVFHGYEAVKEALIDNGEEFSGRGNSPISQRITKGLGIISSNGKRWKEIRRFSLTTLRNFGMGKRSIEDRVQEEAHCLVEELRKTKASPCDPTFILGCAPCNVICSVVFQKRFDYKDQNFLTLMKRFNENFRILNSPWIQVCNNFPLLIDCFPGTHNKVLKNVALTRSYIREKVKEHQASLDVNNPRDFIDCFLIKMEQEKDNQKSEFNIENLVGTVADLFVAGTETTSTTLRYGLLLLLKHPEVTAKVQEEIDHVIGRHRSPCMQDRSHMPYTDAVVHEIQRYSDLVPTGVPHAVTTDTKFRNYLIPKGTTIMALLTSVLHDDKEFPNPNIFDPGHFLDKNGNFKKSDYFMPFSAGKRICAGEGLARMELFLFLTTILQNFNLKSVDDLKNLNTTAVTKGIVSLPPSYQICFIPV
Procedure: (§1) All incubations were performed in triplicate, and the mean values were utilized.
(§2) There was a 3 min pre-incubation period (at 37 °C) before the reaction was initiated by adding an NADPH-generating system. The reaction was terminated by adding a 100 μL acetonitrile (10% trichloroacetic acid for CYP2A6) internal standard mix, and the solution was placed on ice. The mixture was centrifuged at 12,000 rpm for 10 min, and an aliquot (50 μL) of the supernatant was transferred for HPLC analysis. The instrument used in this study were Agilent 1260 series instrument (Palo Alto, CA, USA) with DAD and FLD detector, and the quantitative assay for the corresponding metabolites was performed as previously reported (Lang et al. [2017]; Zhang et al. [2017]).

CYP2C9 [1] = biological target: T2, CYP2C9 (Homo sapiens, UniProt P11712); assay: Time-dependent inhibition study in HLMs, CYP2C9; type: in vitro ADME; conditions: bergenin 20 μM, pre-incubation with HLM and NADPH for 30 min
T2 sequence (P11712 whole entry): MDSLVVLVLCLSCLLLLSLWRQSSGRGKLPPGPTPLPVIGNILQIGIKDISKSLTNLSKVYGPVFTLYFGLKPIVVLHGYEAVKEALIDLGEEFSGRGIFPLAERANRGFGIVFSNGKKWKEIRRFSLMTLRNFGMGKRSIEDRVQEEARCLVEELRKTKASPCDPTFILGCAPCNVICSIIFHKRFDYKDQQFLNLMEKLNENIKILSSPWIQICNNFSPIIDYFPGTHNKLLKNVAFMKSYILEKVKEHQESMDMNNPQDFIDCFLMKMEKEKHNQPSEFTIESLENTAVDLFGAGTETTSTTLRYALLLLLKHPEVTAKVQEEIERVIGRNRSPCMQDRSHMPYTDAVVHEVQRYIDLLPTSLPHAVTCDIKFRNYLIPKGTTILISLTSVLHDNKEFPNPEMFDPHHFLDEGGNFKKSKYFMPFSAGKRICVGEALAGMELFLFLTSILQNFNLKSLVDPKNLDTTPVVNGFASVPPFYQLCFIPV
Procedure: (§3) After incubation, an aliquot (20 μL) was transferred to another incubation tube (final volume 200 μL) containing an NADPH-generating system and probe substrates whose final concentrations were approximate to Km. Then, further incubations were performed to measure the residual activity. After being incubated for different time (30 min for CYP2E1 and CYP2C9, 10 min for CYP3A4), the reactions were terminated by adding a 100 μL acetonitrile internal standard mix and then placed on ice; the corresponding metabolites were determined by HPLC.

[2] = parameters: method as in Pan et al. [2016]; conditions: rats, oral dose 100 mg/kg, ref Pan et al. [2016], cited from earlier work
CYP3A4 [3] = biological target: T3, CYP3A4 (Homo sapiens, UniProt P08684); assay: CYP3A4 inhibition in human liver microsomes (testosterone 6β-hydroxylation); type: in vitro ADME
T3 sequence (P08684 whole entry): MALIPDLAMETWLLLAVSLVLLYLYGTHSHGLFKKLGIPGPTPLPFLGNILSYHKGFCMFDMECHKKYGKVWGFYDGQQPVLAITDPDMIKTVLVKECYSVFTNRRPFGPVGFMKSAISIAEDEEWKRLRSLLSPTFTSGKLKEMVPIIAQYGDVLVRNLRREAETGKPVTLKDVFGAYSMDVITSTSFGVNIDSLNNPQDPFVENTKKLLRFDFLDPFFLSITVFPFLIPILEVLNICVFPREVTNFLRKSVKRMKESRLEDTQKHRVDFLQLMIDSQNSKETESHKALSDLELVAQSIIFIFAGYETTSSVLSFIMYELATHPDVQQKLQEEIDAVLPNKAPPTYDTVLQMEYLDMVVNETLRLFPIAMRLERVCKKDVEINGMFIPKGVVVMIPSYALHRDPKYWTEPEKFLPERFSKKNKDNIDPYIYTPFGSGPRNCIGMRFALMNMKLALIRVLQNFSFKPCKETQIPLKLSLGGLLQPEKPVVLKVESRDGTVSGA
Procedure: as §1, §2
The enzyme kinetic parameters for the probe reaction were estimated from the best fit line using least-squares linear regression of the inverse substrate concentration versus the inverse velocity (Lineweaver–Burk plots), and the mean values were used to calculate Vmax and Km. […]

CYP2A6 = biological target: T4, CYP2A6 (Homo sapiens, UniProt P11509); assay: CYP2A6 inhibition in human liver microsomes (coumarin 7-hydroxylation); type: in vitro ADME; conditions: 100 μM bergenin, pooled HLMs
T4 construct: from tissue; host or cells: pooled human liver microsomes
T4 sequence (P11509 1-494): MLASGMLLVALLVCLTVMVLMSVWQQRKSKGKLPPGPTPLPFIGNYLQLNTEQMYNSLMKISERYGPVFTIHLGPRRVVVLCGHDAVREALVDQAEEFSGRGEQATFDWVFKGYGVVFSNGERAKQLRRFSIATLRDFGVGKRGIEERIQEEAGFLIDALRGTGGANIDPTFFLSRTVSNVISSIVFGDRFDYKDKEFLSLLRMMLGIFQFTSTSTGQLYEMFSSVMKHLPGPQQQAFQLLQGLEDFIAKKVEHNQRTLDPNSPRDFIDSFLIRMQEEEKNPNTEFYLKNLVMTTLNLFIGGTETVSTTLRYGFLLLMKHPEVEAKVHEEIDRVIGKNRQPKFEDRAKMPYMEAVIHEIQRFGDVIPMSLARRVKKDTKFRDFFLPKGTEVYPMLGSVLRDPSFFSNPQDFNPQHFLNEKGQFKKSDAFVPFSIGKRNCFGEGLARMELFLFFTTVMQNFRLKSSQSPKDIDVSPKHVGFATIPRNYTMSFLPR
Procedure: as §1, §2

CYP2E1 [4] = biological target: T5, CYP2E1 (Homo sapiens, UniProt P05181); assay: Time-dependent inhibition study in HLMs, CYP2E1; type: in vitro ADME; conditions: bergenin 20 μM, pre-incubation with HLM and NADPH for 30 min
T5 construct: CYP2E1 catalyzed reactions (chlorzoxazone 6-hydroxylation) in pooled HLM; from tissue; host or cells: pooled human liver microsomes
T5 sequence (P05181 whole entry): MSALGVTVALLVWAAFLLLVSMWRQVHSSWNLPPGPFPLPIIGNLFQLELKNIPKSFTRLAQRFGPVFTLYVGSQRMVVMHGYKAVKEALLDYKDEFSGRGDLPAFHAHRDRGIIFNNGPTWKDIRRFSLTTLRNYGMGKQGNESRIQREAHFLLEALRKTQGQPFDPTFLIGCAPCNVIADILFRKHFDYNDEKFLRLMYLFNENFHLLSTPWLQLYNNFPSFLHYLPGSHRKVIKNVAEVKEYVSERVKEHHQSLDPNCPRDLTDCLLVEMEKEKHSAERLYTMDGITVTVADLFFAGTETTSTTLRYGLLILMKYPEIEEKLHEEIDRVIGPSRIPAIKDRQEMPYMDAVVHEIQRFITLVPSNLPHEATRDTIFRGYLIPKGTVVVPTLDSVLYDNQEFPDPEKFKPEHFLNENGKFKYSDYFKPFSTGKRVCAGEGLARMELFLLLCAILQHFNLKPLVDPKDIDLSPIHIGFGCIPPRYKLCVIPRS
Procedure: as §3

CYP2E1 [5] = biological target: T5, CYP2E1; assay: CYP2E1 inhibition in human liver microsomes (chlorzoxazone 6-hydroxylation); type: in vitro ADME
Procedure: as §1, §2
(§4) The enzyme kinetic parameters for the probe reaction were estimated from the best fit line using least-squares linear regression of the inverse substrate concentration versus the inverse velocity (Lineweaver–Burk plots), and the mean values were used to calculate Vmax and Km. Inhibition data from the experiments that were conducted using multiple compound concentrations were represented by Dixon plots, and inhibition constant (Ki) values were calculated using non-linear regression according to the following equation: v = (VmaxS)/(Km(1 + I/Ki) + S), where I is the concentration of the compound, Ki is the inhibition constant, S is the concentration of the substrate and Km is the substrate concentration at half the maximum velocity (Vmax) of the reaction. The mechanism of the inhibition was inspected using the Lineweaver–Burk plots and the enzyme inhibition models. The data comparison was performed using the Student’s t-test and performed using IBM SPSS statistics 20 (SPSS Inc., Chicago, IL).

CYP2D6 = CYP2D6 (Homo sapiens, UniProt P10635); assay: CYP2D6 inhibition in human liver microsomes (dextromethorphan O-demethylation); type: in vitro ADME; conditions: 100 μM bergenin, pooled HLMs
Chain of CYP2D6 (P10635 whole entry): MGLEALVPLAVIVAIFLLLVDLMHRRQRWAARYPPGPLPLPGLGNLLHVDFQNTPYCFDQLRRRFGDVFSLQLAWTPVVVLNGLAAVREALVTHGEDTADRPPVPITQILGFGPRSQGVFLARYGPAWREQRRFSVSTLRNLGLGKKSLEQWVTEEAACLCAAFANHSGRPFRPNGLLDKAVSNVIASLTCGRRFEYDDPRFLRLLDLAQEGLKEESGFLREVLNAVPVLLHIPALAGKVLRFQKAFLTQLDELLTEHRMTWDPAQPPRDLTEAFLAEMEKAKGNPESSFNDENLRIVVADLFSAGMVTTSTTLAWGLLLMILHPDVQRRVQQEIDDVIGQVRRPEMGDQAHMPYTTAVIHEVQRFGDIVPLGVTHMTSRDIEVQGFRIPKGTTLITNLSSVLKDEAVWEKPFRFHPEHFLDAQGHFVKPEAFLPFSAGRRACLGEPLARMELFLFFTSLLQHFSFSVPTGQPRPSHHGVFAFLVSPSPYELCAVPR
Procedure: as §1, §2

CYP2C9 [6] = biological target: T2, CYP2C9; assay: CYP2C9 inhibition in human liver microsomes (diclofenac 4′-hydroxylation); type: in vitro ADME; conditions: pooled HLMs
Procedure: as §1, §2, §4

CYP2C19 = CYP2C19 (Homo sapiens, UniProt P33261); assay: CYP2C19 inhibition in human liver microsomes (S-mephenytoin 4-hydroxylation); type: in vitro ADME; conditions: 100 μM bergenin, pooled HLMs
Chain of CYP2C19 (P33261 whole entry): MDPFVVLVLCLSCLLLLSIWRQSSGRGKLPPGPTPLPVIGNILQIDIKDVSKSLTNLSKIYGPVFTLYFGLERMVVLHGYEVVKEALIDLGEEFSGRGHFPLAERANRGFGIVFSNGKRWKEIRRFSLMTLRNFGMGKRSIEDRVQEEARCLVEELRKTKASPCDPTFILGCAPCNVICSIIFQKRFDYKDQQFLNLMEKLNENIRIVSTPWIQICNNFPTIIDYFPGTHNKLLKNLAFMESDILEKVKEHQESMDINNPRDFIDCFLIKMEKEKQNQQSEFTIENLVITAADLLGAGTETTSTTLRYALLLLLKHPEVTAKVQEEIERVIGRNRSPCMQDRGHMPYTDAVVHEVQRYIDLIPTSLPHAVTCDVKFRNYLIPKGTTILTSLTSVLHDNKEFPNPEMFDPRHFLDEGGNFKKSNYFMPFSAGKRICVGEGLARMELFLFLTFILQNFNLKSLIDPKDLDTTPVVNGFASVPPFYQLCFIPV
Procedure: as §1, §2

CYP1A2 = CYP1A2 (Homo sapiens, UniProt P05177); assay: CYP1A2 inhibition in human liver microsomes (phenacetin O-deethylation); type: in vitro ADME; conditions: 100 μM bergenin, pooled HLMs
Chain of CYP1A2 (P05177 whole entry): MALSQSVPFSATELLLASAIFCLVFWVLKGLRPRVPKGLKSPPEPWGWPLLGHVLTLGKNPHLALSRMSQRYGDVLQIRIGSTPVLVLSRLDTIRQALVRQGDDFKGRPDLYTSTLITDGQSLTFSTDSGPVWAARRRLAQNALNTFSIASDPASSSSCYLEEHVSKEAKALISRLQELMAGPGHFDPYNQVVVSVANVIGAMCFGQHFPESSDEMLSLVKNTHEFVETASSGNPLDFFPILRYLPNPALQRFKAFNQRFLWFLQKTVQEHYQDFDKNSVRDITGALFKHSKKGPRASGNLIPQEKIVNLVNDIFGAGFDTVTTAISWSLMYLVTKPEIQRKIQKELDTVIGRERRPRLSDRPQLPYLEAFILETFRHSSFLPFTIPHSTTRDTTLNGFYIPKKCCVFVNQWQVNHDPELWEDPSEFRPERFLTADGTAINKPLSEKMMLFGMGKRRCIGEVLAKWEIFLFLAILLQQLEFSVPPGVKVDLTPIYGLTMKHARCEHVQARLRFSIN
Procedure: as §1, §2

CYP3A4 [7] = biological target: T3, CYP3A4; assay: Time-dependent inhibition study in HLMs, CYP3A4; type: in vitro ADME
Procedure: as §3
Figure 7. […] The initial rate constant of inactivation of CYP3A4 by each concentration (Kobs) was determined through linear regression analysis of the natural logarithm of the percentage of remaining activity versus pre-incubation time (A).

[8] = Lineweaver–Burk plots, pooled HLMs

SMILES: COc1c(O)cc2c(c1O)[C@@H]1O[C@H](CO)[C@@H](O)[C@H](O)[C@H]1OC2=O [bergenin, Bergenin]
- Inhibition of CYP2C8 activity (CYP2C8): did not inhibit
- Time-dependent inhibition, activity of CYP2C9 (CYP2C9 [1]): not affected
- Plasma Cmax [2]: less than 300 ng/mL
- Cmax ([2]; read-out: Plasma Cmax): < 900 nM
- Inhibition mode CYP3A4 (CYP3A4 [3]; [8]): non-competitive
- activity at 100 μM (CYP3A4 [3]; human, pooled human liver microsomes, pH 7.4, probe testosterone (6β-hydroxylation), read-out: CYP3A4 activity, % of control activity): 11%
- Inhibition of CYP2A6 activity (CYP2A6): did not inhibit
- Time-dependent inhibition, activity of CYP2E1 (CYP2E1 [4]): not affected
- Inhibition mode CYP2E1 (CYP2E1 [5]; [8]): competitive
- activity at 100 μM (CYP2E1 [5]; human, pooled human liver microsomes, pH 7.4, probe chlorzoxazone (6-hydroxylation), read-out: CYP2E1 activity, % of control activity): 12.2%
- IC50 (CYP2E1 [5]; pooled HLMs, chlorzoxazone 6-hydroxylation): 22.8 µM
- Ki (CYP2E1 [5]; pooled HLMs, secondary Lineweaver–Burk plot, chlorzoxazone 25–200 μM): 11.4 µM
- Inhibition of CYP2D6 activity (CYP2D6): did not inhibit
- Inhibition mode CYP2C9 (CYP2C9 [6]; Lineweaver–Burk plots): competitive
- IC50 (CYP2C9 [6]; diclofenac 4′-hydroxylation): 15.1 µM
- Ki (CYP2C9 [6]; secondary Lineweaver–Burk plot, diclofenac 2–20 μM): 8.89 µM
- Inhibition of CYP2C19 activity (CYP2C19): did not inhibit
- Inhibition of CYP1A2 activity (CYP1A2): did not inhibit
- Time-dependent inhibition, activity of CYP3A4 (CYP3A4 [7]; bergenin 20 μM, pre-incubation with HLM and NADPH for 30 min): decreased with the incubation time
- CYP3A4 inactivated each minute (CYP3A4 [7]; saturating concentration of bergenin incubated with HLM, implied by Kinact): approximately 2.5%
